Reference: ChEMBL document CHEMBL4673219, “Novel 5,6-disubstituted pyrrolo[2,3-d]pyrimidine derivatives as broad spectrum antiproliferative agents: Synthesis, cell based assays, kinase profile and molecular docking study” (Bioorg Med Chem, 2018)
Values joined by “and” are separate entries in the source; they are usually repeats but may differ in a detail not shown here. Equal values may be shown once.

Experiments:
SNB-75 [1] = experiment: Growth inhibition of human SNB-75 cells assessed as growth percentage at 0.01 uM incubated for 48 hrs by sulforhodamine B assay relative to control; type: functional; conditions: read-out: Activity
MDA-MB-435 [2] = experiment: Growth inhibition of human MDA-MB-435 cells incubated for 48 hrs by sulforhodamine B assay; type: functional; conditions: for TGI: MDA-MB-435; for CC50: MDA-MB-435, read-out: LC50 (the source's name)
MDA-MB-231 = experiment: Growth inhibition of human MDA-MB-231/ATCC cells assessed as growth percentage at 100 uM incubated for 48 hrs by sulforhodamine B assay relative to control; type: functional; conditions: read-out: Activity
UACC-62 [3] = experiment: Growth inhibition of human UACC-62 cells assessed as growth percentage at 0.1 uM incubated for 48 hrs by sulforhodamine B assay relative to control; type: functional; conditions: read-out: Activity
RXF 393 [4] = experiment: Growth inhibition of human RXF 393 cells assessed as growth percentage at 0.1 uM incubated for 48 hrs by sulforhodamine B assay relative to control; type: functional; conditions: read-out: Activity
UO-31 = experiment: Growth inhibition of human UO-31 cells assessed as growth percentage at 10 uM incubated for 48 hrs by sulforhodamine B assay relative to control; type: functional; conditions: read-out: Activity
NCI-H460 = experiment: Growth inhibition of human NCI-H460 cells assessed as growth percentage at 0.1 uM incubated for 48 hrs by sulforhodamine B assay relative to control; type: functional; conditions: read-out: Activity
M14 [5] = experiment: Growth inhibition of human M14 cells assessed as growth percentage at 0.1 uM incubated for 48 hrs by sulforhodamine B assay relative to control; type: functional; conditions: read-out: Activity
SK-MEL-28 = experiment: Growth inhibition of human SK-MEL-28 cells assessed as growth percentage at 10 uM incubated for 48 hrs by sulforhodamine B assay relative to control; type: functional; conditions: read-out: Activity
TK-10 = experiment: Growth inhibition of human TK-10 cells assessed as growth percentage at 0.01 uM incubated for 48 hrs by sulforhodamine B assay relative to control; type: functional; conditions: read-out: Activity
RXF 393 [6] = experiment: Growth inhibition of human RXF 393 cells assessed as growth percentage at 100 uM incubated for 48 hrs by sulforhodamine B assay relative to control; type: functional; conditions: read-out: Activity
LOX IMVI [7] = experiment: Growth inhibition of human LOX IMVI cells assessed as growth percentage at 1 uM incubated for 48 hrs by sulforhodamine B assay relative to control; type: functional; conditions: read-out: Activity
UACC-62 [8] = experiment: Growth inhibition of human UACC-62 cells assessed as growth percentage at 10 uM incubated for 48 hrs by sulforhodamine B assay relative to control; type: functional; conditions: read-out: Activity
SNB-19 [9] = experiment: Growth inhibition of human SNB-19 cells assessed as growth percentage at 0.01 uM incubated for 48 hrs by sulforhodamine B assay relative to control; type: functional; conditions: read-out: Activity
IGROV-1 [10] = experiment: Growth inhibition of human IGROV-1 assessed as growth percent at 0.1 uM incubated for 48 hrs by sulforhodamine B assay relative to control; type: functional; conditions: read-out: Activity
SK-OV-3 = experiment: Growth inhibition of human SK-OV-3 cells assessed as growth percentage at 0.1 uM incubated for 48 hrs by sulforhodamine B assay relative to control; type: functional; conditions: read-out: Activity
SNB-19 [11] = experiment: Growth inhibition of human SNB-19 cells assessed as growth percentage at 100 uM incubated for 48 hrs by sulforhodamine B assay relative to control; type: functional; conditions: read-out: Activity
HCT-15 = experiment: Growth inhibition of human HCT-15 cells assessed as growth percentage at 0.01 uM incubated for 48 hrs by sulforhodamine B assay relative to control; type: functional; conditions: read-out: Activity
NCI-H23 = experiment: Growth inhibition of human NCI-H23 cells incubated for 48 hrs by sulforhodamine B assay; type: functional
DU-145 = experiment: Growth inhibition of human DU-145 cells assessed as growth percentage at 0.01 uM incubated for 48 hrs by sulforhodamine B assay relative to control; type: functional; conditions: read-out: Activity
KM12 [12] = experiment: Growth inhibition of human KM12 cells assessed as growth percentage at 0.1 uM incubated for 48 hrs by sulforhodamine B assay relative to control; type: functional; conditions: read-out: Activity
SNB-75 [13] = experiment: Growth inhibition of human SNB-75 cells assessed as growth percentage at 100 uM incubated for 48 hrs by sulforhodamine B assay relative to control; type: functional; conditions: read-out: Activity
UACC-257 = experiment: Growth inhibition of human UACC-257 cells assessed as growth percentage at 1 uM incubated for 48 hrs by sulforhodamine B assay relative to control; type: functional; conditions: read-out: Activity
M14 [14] = experiment: Growth inhibition of human M14 cells incubated for 48 hrs by sulforhodamine B assay; type: functional
[15] = biological target: High affinity nerve growth factor receptor (Homo sapiens, UniProt P04629); experiment: Inhibition of human Trk-A using myelin basic protein as substrate incubated for 40 mins in presence of [gamma33P]ATP by scintillation counting method
Sequence of High affinity nerve growth factor receptor (P04629 whole entry): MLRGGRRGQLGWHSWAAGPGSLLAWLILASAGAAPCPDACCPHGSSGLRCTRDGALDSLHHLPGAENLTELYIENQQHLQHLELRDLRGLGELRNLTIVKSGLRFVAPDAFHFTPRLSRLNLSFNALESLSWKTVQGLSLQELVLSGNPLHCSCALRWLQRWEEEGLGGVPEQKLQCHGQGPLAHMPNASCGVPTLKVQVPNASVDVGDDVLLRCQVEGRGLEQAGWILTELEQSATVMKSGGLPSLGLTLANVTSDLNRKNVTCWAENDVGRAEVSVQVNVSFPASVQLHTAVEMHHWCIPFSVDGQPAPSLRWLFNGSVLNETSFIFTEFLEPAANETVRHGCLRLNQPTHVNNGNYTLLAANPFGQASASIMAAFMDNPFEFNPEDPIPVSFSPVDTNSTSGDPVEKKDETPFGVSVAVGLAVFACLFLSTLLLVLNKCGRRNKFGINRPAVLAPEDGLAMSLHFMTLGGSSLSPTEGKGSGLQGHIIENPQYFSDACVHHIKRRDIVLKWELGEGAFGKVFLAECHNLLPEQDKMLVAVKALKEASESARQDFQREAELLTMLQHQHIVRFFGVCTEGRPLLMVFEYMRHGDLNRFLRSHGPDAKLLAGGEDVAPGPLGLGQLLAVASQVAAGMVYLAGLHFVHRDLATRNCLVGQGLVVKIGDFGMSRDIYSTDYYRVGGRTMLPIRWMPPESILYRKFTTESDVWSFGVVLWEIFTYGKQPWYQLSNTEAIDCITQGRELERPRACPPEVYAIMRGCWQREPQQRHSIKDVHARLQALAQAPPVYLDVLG

NCI-H522 [16] = experiment: Growth inhibition of human NCI-H522 cells assessed as growth percentage at 1 uM incubated for 48 hrs by sulforhodamine B assay relative to control; type: functional; conditions: read-out: Activity
RXF 393 [17] = experiment: Growth inhibition of human RXF 393 cells assessed as growth percentage at 10 uM incubated for 48 hrs by sulforhodamine B assay relative to control; type: functional; conditions: read-out: Activity
HCT-116 = experiment: Growth inhibition of human HCT-116 cells assessed as growth percentage at 100 uM incubated for 48 hrs by sulforhodamine B assay relative to control; type: functional; conditions: read-out: Activity
KM12 [18] = experiment: Growth inhibition of human KM12 cells assessed as growth percentage at 10 uM incubated for 48 hrs by sulforhodamine B assay relative to control; type: functional; conditions: read-out: Activity
SW-620 = experiment: Growth inhibition of human SW-620 cells incubated for 48 hrs by sulforhodamine B assay; type: functional; conditions: for CC50: read-out: LC50 (the source's name)
OVCAR-8 = experiment: Growth inhibition of human OVCAR-8 cells assessed as growth percentage at 0.01 uM incubated for 48 hrs by sulforhodamine B assay relative to control; type: functional; conditions: read-out: Activity
IGROV-1 [19] = experiment: Growth inhibition of human IGROV-1 assessed as growth percent at 1 uM incubated for 48 hrs by sulforhodamine B assay relative to control; type: functional; conditions: read-out: Activity
LOX IMVI [20] = experiment: Growth inhibition of human LOX IMVI cells incubated for 48 hrs by sulforhodamine B assay; type: functional
T47D = experiment: Growth inhibition of human T47D cells incubated for 48 hrs by sulforhodamine B assay; type: functional; conditions: for GI50: 48 h
MDA-MB-435 [21] = experiment: Growth inhibition of human MDA-MB-435 cells assessed as growth percentage at 10 uM incubated for 48 hrs by sulforhodamine B assay relative to control; type: functional; conditions: read-out: Activity
NCI-H522 [22] = experiment: Growth inhibition of human NCI-H522 cells incubated for 48 hrs by sulforhodamine B assay; type: functional
CAKI-1 = experiment: Growth inhibition of human CAKI-1 cells incubated for 48 hrs by sulforhodamine B assay; type: functional; conditions: for GI50: CAKI-1; for CC50: read-out: LC50 (the source's name)

## CCCCCCCC(=O)Nc1nc2[nH]c(CN3CCN(Cc4cccc(F)c4)CC3)c(CN3CCN(Cc4cccc(F)c4)CC3)c2c(=O)[nH]1
SNB-75 [1]
  growth at 0.01 µM: 93%
MDA-MB-435 [2]; 48 h
  GI50: 0.32 µM
MDA-MB-435 [2]; Homo sapiens
  TGI: 1.24 µM
  CC50: 3.77 µM
MDA-MB-435 [2]; Homo sapiens, MDA-MB-435, 48 h
  GI50: 0.317 µM
MDA-MB-231
  growth at 100 µM: -66%
UACC-62 [3]
  growth at 0.1 µM: 100%
RXF 393 [4]
  growth at 0.1 µM: 100%
UO-31
  growth at 10 µM: -96.5%
NCI-H460
  growth at 0.1 µM: 105%
M14 [5]
  growth at 0.1 µM: 94%
SK-MEL-28
  growth at 10 µM: -97%
TK-10
  growth at 0.01 µM: 91%
RXF 393 [6]
  growth at 100 µM: -95%
LOX IMVI [7]
  growth at 1 µM: -58%
UACC-62 [8]
  growth at 10 µM: -93.9%
SNB-19 [9]
  growth at 0.01 µM: 96%
IGROV-1 [10]
  growth at 0.1 µM: 95%
SK-OV-3
  growth at 0.1 µM: 94%
SNB-19 [11]
  growth at 100 µM: -83%
HCT-15
  growth at 0.01 µM: 98%
NCI-H23
  GI50: 1.86 µM
  LC50 (50% lethal concentration): 8.02 µM
  TGI: 3.86 µM
DU-145
  growth at 0.01 µM: 100%
KM12 [12]
  growth at 0.1 µM: 93%
SNB-75 [13]
  growth at 100 µM: -99%
UACC-257
  growth at 1 µM: -48%
M14 [14]; 48 h
  GI50: 0.21 µM
  TGI: 0.47 µM
M14 [14]; Homo sapiens, M14
  LC50 (50% lethal concentration): 1.24 µM
M14 [14]; Homo sapiens, M14, 48 h
  GI50: 0.205 µM
  TGI: 0.466 µM
[15]
  IC50: 2.25 µM
NCI-H522 [16]
  growth at 1 µM: 100%
RXF 393 [17]
  growth at 10 µM: -92.4%
HCT-116
  growth at 100 µM: -69%
KM12 [18]
  growth at 10 µM: -88.9%
SW-620; 48 h
  GI50: 0.19 µM
  TGI: 0.38 µM
  CC50: 0.74 µM
SW-620; Homo sapiens, SW-620, 48 h
  GI50: 0.191 µM
  TGI: 0.377 µM
  CC50: 0.744 µM
OVCAR-8
  growth at 0.01 µM: 102%
IGROV-1 [19]
  growth at 1 µM: 72%
LOX IMVI [20]
  GI50: 0.2 µM
  LC50 (concentration killing 50% of cells): 8.87 µM and 0.89 µM
  TGI: 0.42 µM
LOX IMVI [20]; Homo sapiens, LOX IMVI
  GI50: 0.195 µM
  TGI: 0.416 µM
T47D
  GI50: 0.16 µM and 1.6 µM
T47D; Homo sapiens, T47D
  TGI: 3.47 µM
T47D; Homo sapiens, T47D, read-out: LC50 (the source's name)
  CC50: 7.53 µM
MDA-MB-435 [21]
  growth at 10 µM: -98.1%
NCI-H522 [22]
  GI50: 1.91 µM
  LC50: 6.88 µM
  TGI: 3.62 µM
CAKI-1; Homo sapiens
  GI50: 1.32 µM
CAKI-1; Homo sapiens, CAKI-1, 48 h
  TGI: 2.61 µM
  CC50: 5.18 µM

## Nc1nc2[nH]c(CN3CCN(c4cc(Cl)cc(Cl)c4)CC3)c(CN3CCN(c4cc(Cl)cc(Cl)c4)CC3)c2c(=O)[nH]1
SNB-75 [1]
  growth at 0.01 µM: 81%
MDA-MB-435 [2]; Homo sapiens
  TGI: 3.04 µM
  CC50: 5.72 µM
MDA-MB-435 [2]; Homo sapiens, MDA-MB-435, 48 h
  GI50: 1.62 µM
MDA-MB-231
  growth at 100 µM: -30%
UACC-62 [3]
  growth at 0.1 µM: 102%
RXF 393 [4]
  growth at 0.1 µM: 89%
UO-31
  growth at 10 µM: 75.1%
NCI-H460
  growth at 0.1 µM: 104%
M14 [5]
  growth at 0.1 µM: 98%
SK-MEL-28
  growth at 10 µM: 90.8%
TK-10
  growth at 0.01 µM: 101%
RXF 393 [6]
  growth at 100 µM: -28%
LOX IMVI [7]
  growth at 1 µM: 104%
UACC-62 [8]
  growth at 10 µM: 77.8%
SNB-19 [9]
  growth at 0.01 µM: 96%
IGROV-1 [10]
  growth at 0.1 µM: 105%
SK-OV-3
  growth at 0.1 µM: 103%
SNB-19 [11]
  growth at 100 µM: -16%
HCT-15
  growth at 0.01 µM: 98%
NCI-H23
  GI50: 2.03 µM
  TGI: 3.96 µM
DU-145
  growth at 0.01 µM: 110%
KM12 [12]
  growth at 0.1 µM: 105%
SNB-75 [13]
  growth at 100 µM: -76%
UACC-257
  growth at 1 µM: 93%
M14 [14]; Homo sapiens, M14, 48 h
  GI50: 1.83 µM
  TGI: 3.63 µM
[15]
  IC50: 12.4 µM
NCI-H522 [16]
  growth at 1 µM: 91%
RXF 393 [17]
  growth at 10 µM: 81%
HCT-116
  growth at 100 µM: -59%
KM12 [18]
  growth at 10 µM: 64.2%
SW-620; Homo sapiens, SW-620, 48 h
  GI50: 1.72 µM
  TGI: 3.5 µM
  CC50: 7.12 µM
OVCAR-8
  growth at 0.01 µM: 100%
IGROV-1 [19]
  growth at 1 µM: 96%
LOX IMVI [20]; Homo sapiens, LOX IMVI
  GI50: 1.94 µM
  TGI: 3.57 µM
T47D; Homo sapiens, T47D
  TGI: 4.02 µM
  GI50: 1.78 µM
MDA-MB-435 [21]
  growth at 10 µM: 8.61%
NCI-H522 [22]
  GI50: 1.74 µM
  TGI: 3.44 µM
CAKI-1; 48 h
  TGI: 18 µM and 1.8 µM
  CC50: 43.7 µM and 4.37 µM
CAKI-1; Homo sapiens
  GI50: 5.1 µM
